31 compounds from US7704995B2 (Exelixis, Inc., priority 2003, dated 2010) can be followed below.

In this assay the target is T1, Chk1 (Homo sapiens, UniProt O14757).
T1 construct: purchased Upstate Biotechnology
T1 sequence (O14757 1-476): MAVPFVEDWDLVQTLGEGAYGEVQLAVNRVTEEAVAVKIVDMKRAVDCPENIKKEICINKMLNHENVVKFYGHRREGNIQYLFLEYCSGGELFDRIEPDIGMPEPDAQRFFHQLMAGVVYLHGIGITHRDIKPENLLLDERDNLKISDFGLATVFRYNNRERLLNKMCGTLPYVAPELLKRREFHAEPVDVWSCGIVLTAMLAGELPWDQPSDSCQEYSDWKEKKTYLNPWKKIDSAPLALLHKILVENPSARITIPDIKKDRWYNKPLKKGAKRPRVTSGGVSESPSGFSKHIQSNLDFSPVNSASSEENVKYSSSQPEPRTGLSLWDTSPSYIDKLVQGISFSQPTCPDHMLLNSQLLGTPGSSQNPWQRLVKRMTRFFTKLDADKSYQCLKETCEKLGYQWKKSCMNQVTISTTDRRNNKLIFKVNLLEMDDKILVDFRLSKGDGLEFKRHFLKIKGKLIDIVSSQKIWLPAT
Kind of assay: Chk1 kinase assay: incorporation of γ-33P ATP into immobilized myelin basic protein. The following applies: Table 11; Chk1 only; read-out: Chk1 IC50. In kind it is biochemical. An outline of the steps:
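Plates coated with MBP, then kinase reactions in Hepes pH 7.6 buffer with 10 mM MgCl2 and 1% DMSO were started by adding unlabeled plus γ-33P ATP (10 μM for Chk1 at 10 nM enzyme; 30 μM for Chk2 at 20 nM enzyme). After 1 h at room temperature, plates were washed and counted.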
With `CCOC(=O)[C@H](Cc1ccc(O)cc1)NC(=O)c1nc(-c2cccc(C(=O)NCc3ccccc3)c2)cnc1N` [Example 610, ethyl N-{[3-amino-6-(3-{[(phenylmethyl)amino]carbonyl}phenyl)pyrazin-2-yl]carbonyl}-L-tyrosinate], the IC50 was ≥ 10 µM.

On to `Nc1ncc(-c2cccc(C(=O)NCc3ccccc3)c2)nc1C(=O)N[C@H](Cc1ccc(O)cc1)C(=O)O` [Example 611, N-{[3-amino-6-(3-{[(phenylmethyl)amino]carbonyl}phenyl)pyrazin-2-yl]carbonyl}-D-tyrosine], for which the IC50 was ≥ 10 µM.

`CC(C)(C)OC(=O)NCCCNC(=O)c1nc(-c2cccc(C(=O)NCc3ccccc3)c2)cnc1N` [Example 612, 1,1-dimethylethyl [3-({[3-amino-6-(3-{[(phenylmethyl)amino]carbonyl}phenyl)pyrazin-2-yl]carbonyl}amino)propyl]carbamate]: the IC50 is ≥ 10 µM.

`NCCCNC(=O)c1nc(-c2cccc(C(=O)NCc3ccccc3)c2)cnc1N` [Example 613, 3-amino-N-(3-aminopropyl)-6-(3-{[(phenylmethyl)amino]carbonyl}phenyl)pyrazine-2-carboxamide]: the half-inhibitory concentration (IC50) lay within 0.05 to 1 µM.

For the compound `Nc1ncc(-c2cccc(C(=O)NCc3ccccc3)c2)nc1C(=O)N1CCCC(C(=O)O)C1` (stereo not shown) [Example 614, 1-{[3-amino-6-(3-{[(phenylmethyl)amino]carbonyl}phenyl)pyrazin-2-yl]carbonyl}piperidine-3-carboxylic], the half-maximal inhibitory concentration (IC50) was ≥ 10 µM.

As to `CC(C)(C)OC(=O)NCCNC(=O)c1nc(-c2cccc(C(=O)NCc3ccccc3)c2)cnc1N` [Example 615, 1,1-dimethylethyl [2-({[3-amino-6-(3-{[(phenylmethyl)amino]carbonyl}phenyl)pyrazin-2-yl]carbonyl}amino)ethyl]carbamate], the IC50 is ≥ 10 µM.

With `NCCNC(=O)c1nc(-c2cccc(C(=O)NCc3ccccc3)c2)cnc1N` [Example 616, 3-amino-N-(2-aminoethyl)-6-(3-{[(phenylmethyl)amino]carbonyl}phenyl)pyrazine-2-carboxamide], the half-inhibitory concentration (IC50) lay in the range of 0.05 to 1 µM.

As to `CC(C)(C)OC(=O)NC1CCN(C(=O)c2nc(-c3cccc(C(=O)NCc4ccccc4)c3)cnc2N)CC1` [Example 617, 1,1-dimethylethyl (1-{[3-amino-6-(3-{[(phenylmethyl)amino]carbonyl}phenyl)pyrazin-2-yl]carbonyl}piperidin-4-yl)carbamate], the 50% inhibitory concentration (IC50) was ≥ 10 µM.

With `Nc1ncc(-c2cccc(C(=O)NCc3ccccc3)c2)nc1C(=O)N1CCC(N)CC1` [Example 618, 3-{5-amino-6-[(4-aminopiperidin-1-yl)carbonyl]pyrazin-2-yl}-N-(phenylmethyl)benzamide], the IC50 is ≥ 10 µM.

Turning to `N=C(NNc1ccccc1)c1nc(-c2cccc(C(=O)NCc3ccccc3)c2)cnc1N` [Example 619, 3-{5-amino-6-[imino(2-phenylhydrazino)methyl]pyrazin-2-yl}-N-(phenylmethyl)benzamide], the IC50 lay within 1 to 10 µM.

For `N=C(NN1CCOCC1)c1nc(-c2cccc(C(=O)NCc3ccccc3)c2)cnc1N` [Example 620, 3-{5-amino-6-[imino(morpholin-4-ylamino)methyl]pyrazin-2-yl}-N-(phenylmethyl)benzamide], the IC50 was 1 to 10 µM.

`CN1CCN(NC(=N)c2nc(-c3cccc(C(=O)NCc4ccccc4)c3)cnc2N)CC1` [Example 621, 3-(5-amino-6-{imino[(4-methylpiperazin-1-yl)amino]methyl}pyrazin-2-yl)-N-(phenylmethyl)benzamide]: the 50% inhibitory concentration (IC50) is ≥ 10 µM.

As to `N=C(NN1CCCCC1)c1nc(-c2cccc(C(=O)NCc3ccccc3)c2)cnc1N` [Example 622, 3-{5-amino-6-[imino(piperidin-1-ylamino)methyl]pyrazin-2-yl}-N-(phenylmethyl)benzamide], the IC50 is ≥ 10 µM.

As to `N=C(NN1CCCCCC1)c1nc(-c2cccc(C(=O)NCc3ccccc3)c2)cnc1N` [Example 623, 3-{5-amino-6-[(azepan-1-ylamino)(imino)methyl]pyrazin-2-yl}-N-(phenylmethyl)benzamide], the concentration for half-maximal inhibition (IC50) lay within 1 to 10 µM.

As for `COC[C@H]1CCCN1NC(=N)c1nc(-c2cccc(C(=O)NCc3ccccc3)c2)cnc1N` [Example 624, 3-{5-amino-6-[imino({(2R)-2-[(methyloxy)methyl]pyrrolidin-1-yl}amino)methyl]pyrazin-2-yl}-N-(phenylmethyl)benzamide], the IC50 was ≥ 10 µM.

For `Nc1ncc(-c2cccc(CO)c2)nc1-c1nc(C2CCCNC2)n[nH]1` (stereo not shown) [Example 625, {3-[5-amino-6-(3-piperidin-3-yl-1H-1,2,4-triazol-5-yl)pyrazin-2-yl]phenyl}methanol], the concentration for half-maximal inhibition (IC50) lay within 0.05 to 1 µM.

For the compound `C/C(=N\N1CCOCC1)c1nc(-c2cccc(C(=O)NCc3ccccc3)c2)cnc1N` [Example 626, 3-{5-amino-6-[(1E)-N-morpholin-4-ylethanimidoyl]pyrazin-2-yl}-N-(phenylmethyl)benzamide], the IC50 was in the range of 1 to 10 µM.

Turning to `C/C(=N\Nc1ccc(C(=O)O)cc1)c1nc(-c2cccc(C(=O)NCc3ccccc3)c2)cnc1N` [Example 627, 4-((2E)-2-{1-[3-amino-6-(3-{[(phenylmethyl)amino]carbonyl}phenyl)pyrazin-2-yl]ethylidene}hydrazino)benzoic acid], the half-inhibitory concentration (IC50) fell in the range of 1 to 10 µM.

Consider `CCOC(=O)CN/N=C(\C)c1nc(-c2cccc(C(=O)NCc3ccccc3)c2)cnc1N` [Example 628, ethyl ((2E)-2-{1-[3-amino-6-(3-{[(phenylmethyl)amino]carbonyl}phenyl)pyrazin-2-yl]ethylidene}hydrazino)acetate], for which the IC50 was ≥ 10 µM.

Consider `C/C(=N\N(C)C)c1nc(-c2cccc(C(=O)NCc3ccccc3)c2)cnc1N` [Example 629, 3-{5-amino-6-[(1E)-N,N-dimethylethanehydrazonoyl]pyrazin-2-yl}-N-(phenylmethyl)benzamide], for which the half-maximal inhibitory concentration (IC50) fell in the range of 0.05 to 1 µM.

Consider `C/C(=N\Nc1ccc(S(C)(=O)=O)cc1)c1nc(-c2cccc(C(=O)NCc3ccccc3)c2)cnc1N` [Example 630, 3-(5-amino-6-{(1E)-N-[4-(methylsulfonyl)phenyl]ethanehydrazonoyl}pyrazin-2-yl)-N-(phenylmethyl)benzamide], for which the half-maximal inhibitory concentration (IC50) was ≥ 10 µM.

On to `C/C(=N\Nc1ccc(C#N)cc1)c1nc(-c2cccc(C(=O)NCc3ccccc3)c2)cnc1N` [Example 631, 3-{5-amino-6-[(1E)-N-(4-cyanophenyl)ethanehydrazonoyl]pyrazin-2-yl}-N-(phenylmethyl)benzamide], for which the IC50 was ≥ 10 µM.

Consider `C/C(=N\Nc1ccccn1)c1nc(-c2cccc(C(=O)NCc3ccccc3)c2)cnc1N` [Example 632, 3-{5-amino-6-[(1E)-N-pyridin-2-ylethanehydrazonoyl]pyrazin-2-yl}-N-(phenylmethyl)benzamide], for which the IC50 was ≥ 10 µM.

As to `C/C(=N\NC(=N)N)c1nc(-c2cccc(C(=O)NCc3ccccc3)c2)cnc1N` [Example 633, 3-(5-amino-6-{(1E)-N-[amino(imino)methyl]ethanehydrazonoyl}pyrazin-2-yl)-N-(phenylmethyl)benzamide], the IC50 was in the range of 1 to 10 µM.

`C/C(=N\Nc1ccc(OC(F)(F)F)cc1)c1nc(-c2cccc(C(=O)NCc3ccccc3)c2)cnc1N` [Example 634, 3-[5-amino-6-((1E)-N-{4-[(trifluoromethyl)oxy]phenyl}ethanehydrazonoyl)pyrazin-2-yl]-N-(phenylmethyl)benzamide]: the IC50 was ≥ 10 µM.

For `CC(=NNc1ccc([N+](=O)[O-])cc1)c1nc(-c2cccc(C(=O)NCc3ccccc3)c2)cnc1N` [Example 635, 3-(5-Amino-6-{1-[(4-nitro-phenyl)-hydrazono]-ethyl}-pyrazin-2-yl)-N-benzyl-benzamide], the IC50 is ≥ 10 µM.

Consider `C/C(=N\Nc1nccc(C(F)(F)F)n1)c1nc(-c2cccc(C(=O)NCc3ccccc3)c2)cnc1N` [Example 636, 3-(5-amino-6-{(1E)-N-[4-(trifluoromethyl)pyrimidin-2-yl]ethanehydrazonoyl}pyrazin-2-yl)-N-(phenylmethyl)benzamide], for which the IC50 was 1 to 10 µM.

Take `C/C(=N\n1nnc2ccccc21)c1nc(-c2cccc(C(=O)NCc3ccccc3)c2)cnc1N` [Example 637, 3-{5-amino-6-[(1E)-N-1H-1,2,3-benzotriazol-1-ylethanimidoyl]pyrazin-2-yl}-N-(phenylmethyl)benzamide]: the IC50 was ≥ 10 µM.

In the case of `CN/N=C(\C)c1nc(-c2cccc(C(=O)NCc3ccccc3)c2)cnc1N` [Example 638, 3-{5-amino-6-[(1E)-N-methylethanehydrazonoyl]pyrazin-2-yl}-N-(phenylmethyl)benzamide], the IC50 was ≥ 10 µM.

Take `Nc1ncc(-c2cccc(CN[C@H]3CCc4ccccc43)c2)nc1-c1nc(C2CCNCC2)n[nH]1` [Example 639, 5-(3-{[(1S)-2,3-dihydro-1H-inden-1-ylamino]methyl}phenyl)-3-(3-piperidin-4-yl-1H-1,2,4-triazol-5-yl)pyrazin-2-amine]: the IC50 lay in the range of 0.05 to 1 µM.

In the case of `C/C(=N\Nc1ccc(C(F)(F)F)cc1)c1nc(-c2cccc(C(=O)NCc3ccccc3)c2)cnc1N` [Example 640, 3-(5-amino-6-{(1E)-N-[4-(trifluoromethyl)phenyl]ethanehydrazonoyl}pyrazin-2-yl)-N-(phenylmethyl)benzamide], the IC50 is ≥ 10 µM.
